Test results as given in article PMC9315260, “Diarylamine-Guided Carboxamide Derivatives: Synthesis, Biological Evaluation, and Potential Mechanism of Action” (Frontiers in Chemistry, 2022).
Entries after “also recorded” stand apart in the source; their conditions may differ.

Columns and labels:
[1] = system: SGC-7901 (human gastric cancer cell line); assay: MTT in vitro cytotoxicity assay, SGC-7901; type: cell-based; details: for IC50: mean ± S.D.; for inhibition at 100 µM: SGC-7901, at 100 µM, read-out: Cell growth inhibition (%) SGC-7901
Experimental: (§1) The lead molecules A2 and all newly prepared diarylamine derivatives B1-13 and C1-11 were evaluated for their in vitro cytotoxic effects against SGC-7901, A875, HepG2 and MARC145 cell lines by the classical MTT [3-(4,5-dimethylthiazol-2-yl)-2,5-diphenyl tetrazolium bromide] assay ([Alley et al., 1988]; [Ke et al., 2012]; [Shi et al., 2012]; [Yu et al., 2015]; [Ke et al., 2019]; [Xu et al., 2019]; [Huang et al., 2021]) using 5-FU (5-Fluorouracil) as a control.
(§2) The cytotoxicity of target compounds was determined with MTT assay ([Alley et al., 1988]; [Ke et al., 2012]; [Shi et al., 2012]; [Yu et al., 2015]; [Ke et al., 2019]; [Xu et al., 2019]; [Huang et al., 2021]). SGC-7901, A875, HepG2 and MARC145 cell lines were obtained from Hubei Biopesticide Engineering Research Centre. All data of the experiment were analyzed with SPSS software, and all assay were performed in triplicate on three independent experiments, and measurement data were expressed as the mean ± S.D.
(§3) The in vitro cytotoxicity of the synthesized compounds against different cell lines (SGC-7901, A875, HepG2 and MARC145) was measured with MTT assay. All the data of the experiment were analyzed with SPSS software, and the 50% inhibitory concentrations (IC50) of each compound for the different cell lines were determined. A control was run for each test, and all assays were performed in triplicate on three independent experiments, and measurement data were expressed as the mean ± S.D.

[2] = system: A875 (human melanoma cell line); assay: MTT in vitro cytotoxicity assay, A875; type: cell-based; details: for IC50: mean ± S.D.; for inhibition at 100 µM: A875, at 100 µM, read-out: Cell growth inhibition (%) A875
Experimental: as §1, §2, §3

[3] = system: HepG2 (human hepatocellular liver carcinoma cell line); assay: MTT in vitro cytotoxicity assay, HepG2; type: cell-based; details: for IC50: mean ± S.D.; for inhibition at 100 µM: HepG2, at 100 µM, read-out: Cell growth inhibition (%) HepG2
Experimental: as §1, §2, §3

[4] = MTT in vitro cytotoxicity assay, MARC145; type: cell-based, African green monkey; details: African green monkey, MARC145 cells (kidney cell line, subclone of MA-104), MTT, mean ± S.D.
Experimental: as §1, §2, §3

[5] = system: MARC145 (subclone of African green monkey kidney cell line MA-104); assay: MTT in vitro cytotoxicity assay, MARC145; type: cell-based; details: Chlorocebus sabaeus, MARC145; at 100 µM; read-out: Cell growth inhibition (%) MARC145
Experimental: as §1, §2, §3

[6] = system: SGC-7901, A875, HepG2 and MARC145 cell lines; assay: MTT in vitro cytotoxicity assay, statements over the whole cell panel; type: cell-based; details: for cytotoxic effect / inhibition activity in words: IC50-based judgement, compared with 5-FU; for inhibition activity in preliminary screening, in words: at 100 µM, inhibition rate higher than control 5-FU
Experimental: as §1, §2, §3

A875 cells = assay: LDH release (cellular necrosis); type: cell-based, human; details: 24 h after treatment
Experimental: From the preliminary analysis of apoptosis, the results encourage us to further investigate the type of cell death induced by the potential compounds (C6 and C11). As we know, the release of LDH is a typical characteristic feature of necrotic cell death, and so which was detected.
A875 cells grown in 96-well plates were treated with serial dilutions of each tested compound for 24 h. The culture media were collected, and the concentrations of LDH were determined based on our previous research ([Huang et al., 2021]).
A875 cells grown in 96-well plates were treated with serial dilutions of each tested compound for 24 h. The culture media were collected, and the concentrations of LDH were determined with an LDH assay kit according to the manufacturer’s instructions (Abcam).

NCI-H460 = system: NCI-H460; design: method as in Peng et al., 2017; details: ref Peng et al., 2017; cited from earlier work
A549 = system: A549; design: method as in Peng et al., 2017; details: ref Peng et al., 2017; cited from earlier work
NCI-H1975 = system: NCI-H1975; design: method as in Peng et al., 2017; details: ref Peng et al., 2017; cited from earlier work
HL-7702 = system: HL-7702; design: method as in Peng et al., 2017; details: ref Peng et al., 2017; cited from earlier work
MDCK = system: MDCK; design: method as in Peng et al., 2017; details: ref Peng et al., 2017; cited from earlier work
[7] = system: lung cancer cell lines (NCI-H460, A549, and NCI-H1975); design: method as in Peng et al., 2017; details: ref Peng et al., 2017, read-out: IC50 values against the tested lung cancer cell lines; cited from earlier work

SMILES | IC50 ([1]; SGC-7901, Table 1, MTT) [µM] | IC50 ([1]; SGC-7901, Table 3, MTT) [µM] | inhibition at 100 µM [1] [%] | IC50 ([2]; A875, Table 1, MTT) [µM] | IC50 ([2]; A875, Table 3, MTT) [µM] | inhibition at 100 µM [2] [%] | IC50 ([3]; HepG2, Table 1, MTT) [µM] | IC50 ([3]; HepG2, Table 3, MTT) [µM] | inhibition at 100 µM [3] [%] | IC50 ([4]; Table 1) [µM] | IC50 ([4]; Table 3) [µM] | inhibition at 100 µM [5] [%] | melting point [°C] | other results
O=c1[nH]cc(F)c(=O)[nH]1 [5-FU, 5-Fluorouracil, reference compound] | 71.1 ± 2.65 | 87.7 ± 11 | 56.8 ± 2.2 | 82.4 ± 23.7 | 101 ± 7.14 | 53.2 ± 4.5 | 88.1 ± 17.2 | 91.8 ± 16.1 | 59 ± 3.5 | 153 ± 11 | 99 ± 16.4 | 60.3 ± 3.9 | – | dose-response analysis of cell growth inhibition, in words ([6]; SGC-7901, A875, HepG2, MARC145): significant concentration dependence; release of LDH, in words (A875 cells): significantly increased
Cc1cc(Cl)cc(C(N)=O)c1NC(=O)c1ccccc1Nc1cccc(C(F)(F)F)c1 [A1] | 52.8 ± 6.59 | – | – | 56.9 ± 7.54 | – | – | > 89 | – | – | > 89 | – | – | – | IC50 (NCI-H460): > 80 µM; IC50 (A549): > 80 µM; IC50 (NCI-H1975): > 80 µM; IC50 (HL-7702): > 80 µM; IC50 (MDCK): > 80 µM; IC50 [7]: > 80 µM
CNC(=O)c1cc(Cl)cc(C)c1NC(=O)c1ccccc1Nc1cccc(C(F)(F)F)c1 [A2] | 8.5 ± 2.26 | – | – | 7.59 ± 1.82 | – | – | 12.4 ± 0.39 | – | – | 8.13 ± 2.49 | – | – | – | IC50 ([6]; SGC-7901, A875, HepG2, MARC145, read-out: IC50 values, span over the tested cell lines): 7.59 to 12.4 µM; IC50 (NCI-H460): 14.8 ± 0.49 µM; IC50 (A549): 14.7 ± 1.86 µM; IC50 (NCI-H1975): 23.4 ± 2.21 µM; IC50 (HL-7702): 46.4 ± 3.87 µM; IC50 (MDCK): 46 ± 7.77 µM
CNC(=O)c1cc(Cl)cc(Cl)c1NC(=O)c1ccccc1Nc1cccc(C(F)(F)F)c1 [B13, 3,5-Dichloro-N-methyl-2-(2-((3-(trifluoromethyl)phenyl)amino)benzamido)benzamide] | > 83 | – | – | > 83 | – | – | > 83 | – | – | > 83 | – | – | 180 to 181 | –
CC(C)c1ccc(NC(=O)c2ccccc2Nc2cccc(C(F)(F)F)c2)cc1 [C1, N-(4-Isopropylphenyl)-2-((3-(trifluoromethyl)phenyl)amino)benzamide] | – | 47 ± 9.74 | 72.3 ± 3.1 | – | > 100 | 43.1 ± 2 | – | > 100 | 42.7 ± 3.1 | – | > 100 | 7.5 ± 2.3 | 74 to 75 | –
CC(C)c1ccc(NC(=O)c2cccnc2Nc2cccc(C(F)(F)F)c2)cc1 [C2, N-(4-Isopropylphenyl)-2-((3-(trifluoromethyl)phenyl)amino)nicotinamide] | – | > 100 | 26.9 ± 1.8 | – | > 100 | 42 ± 2.5 | – | > 100 | 13.1 ± 2.3 | – | > 100 | 15.8 ± 1.9 | 161 to 162 | –
O=C(Nc1ccccc1C(F)(F)F)c1ccccc1Nc1cccc(C(F)(F)F)c1 [C3, N-(2-(Trifluoromethyl)phenyl)-2-((3-(trifluoromethyl)phenyl)amino)benzamide] | – | 29.7 ± 4.03 | 78.6 ± 2.9 | – | > 94 | 56.4 ± 2.5 | – | 24.2 ± 3.21 | 88.5 ± 3.2 | – | > 94 | 23.5 ± 2.1 | 82 to 83 | –
O=C(Nc1ccccc1C(F)(F)F)c1cccnc1Nc1cccc(C(F)(F)F)c1 [C4, N-(2-(Trifluoromethyl)phenyl)-2-((3-(trifluoromethyl)phenyl)amino)nicotinamide] | – | > 94 | 4.5 ± 0.4 | – | > 94 | 5.2 ± 1.5 | – | > 94 | 3.1 ± 1.2 | – | > 94 | 0 | 139 to 140 | –
O=C(Nc1cccc(C(F)(F)F)c1)c1ccccc1Nc1cccc(C(F)(F)F)c1 [C5, N-(3-(Trifluoromethyl)phenyl)-2-((3-(trifluoromethyl)phenyl)amino)benzamide] | – | 6.39 ± 1.53 | 89.6 ± 5.4 | – | 8.54 ± 2.17 | 93.7 ± 3.2 | – | 10.1 ± 0.8 | 88.9 ± 1.9 | – | 9.57 ± 2.15 | 92.3 ± 4.1 | 75 to 76 | cytotoxic effect / inhibition activity in words [6]: good cytotoxic effect; also recorded: higher inhibition activities compared to the control 5-FU; dose-response analysis of cell growth inhibition, in words ([6]; SGC-7901, A875, HepG2, MARC145): significant concentration dependence; inhibition activity in preliminary screening, in words [6]: good inhibition activity
O=C(Nc1ccc(C(F)(F)F)cc1)c1ccccc1Nc1cccc(C(F)(F)F)c1 [C7, N-(4-(Trifluoromethyl)phenyl)-2-((3-(trifluoromethyl)phenyl)amino)benzamide] | – | 8.91 ± 2.15 | 87 ± 2.4 | – | 13 ± 3.39 | 92.6 ± 4.9 | – | 10.4 ± 2.17 | 88.5 ± 3.3 | – | 11.9 ± 1.37 | 76.1 ± 3.5 | 102 to 103 | cytotoxic effect / inhibition activity in words [6]: good cytotoxic effect; also recorded: higher inhibition activities compared to the control 5-FU; dose-response analysis of cell growth inhibition, in words ([6]; SGC-7901, A875, HepG2, MARC145): significant concentration dependence; inhibition activity in preliminary screening, in words [6]: good inhibition activity
O=C(Nc1ccc(C(F)(F)F)cc1)c1cccnc1Nc1cccc(C(F)(F)F)c1 [C8, N-(4-(Trifluoromethyl)phenyl)-2-((3-(trifluoromethyl)phenyl)amino)nicotinamide] | – | > 94 | 51.2 ± 3.5 | – | 55.6 ± 6.73 | 56.5 ± 3.1 | – | > 94 | 42.4 ± 2.6 | – | 57.7 ± 8.87 | 65.8 ± 2.6 | – | –
O=C(Nc1ccccn1)c1ccccc1Nc1cccc(C(F)(F)F)c1 [C9, N-(Pyridin-2-yl)-2-((3-(trifluoromethyl)phenyl)amino)benzamide] | – | 42 ± 7.95 | 80.5 ± 2.5 | – | > 112 | 30.3 ± 4.1 | – | 64.2 ± 3.89 | 75 ± 2.7 | – | 64.7 ± 3.02 | 56.5 ± 3.3 | 65 to 66 | –
O=C(Nc1ccnc(Cl)c1)c1ccccc1Nc1cccc(C(F)(F)F)c1 [C10, N-(2-Chloropyridin-4-yl)-2-((3-(trifluoromethyl)phenyl)amino)benzamide] | – | 8.31 ± 2.94 | 86.8 ± 3.2 | – | 26.3 ± 7.39 | 90.1 ± 5.4 | – | 21.9 ± 1.64 | 87.2 ± 4.1 | – | 22.7 ± 5.93 | 80.3 ± 4.6 | 97 to 98 | cytotoxic effect / inhibition activity in words [6]: higher inhibition activities compared to the control 5-FU; inhibition activity in preliminary screening, in words [6]: good inhibition activity
